Measurements reported in patent US9840513B2 (AbbVie S.à.r.l., priority 2015, dated 2017).
pEC50: −log10 of the molar value.

How the values were obtained:
[1] = target: T1, F508delCFTR cell surface expression in CFBE41o-F508delCFTR-HRP cells (Homo sapiens, UniProt P13569, DEL508-508); assay: Cell Surface Expression-Horse Radish Peroxidase (CSE-HRP) Assay; type: cell-based; settings: for pEC50: CFBE41o-F508delCFTR-HRP cells, 18-24 hours at 33° C., 8-point curve, highest concentration 20 μM; for Maximum % activity (%): maximum at any tested concentration, normalized to on-plate positive control (3 μM)
T1 construct: fused on or other part: Horseradish peroxidase (HRP) reporter inserted in the fourth exofacial (extracellular) loop of CFTR; expression is doxycycline-inducible
In short: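 CFBE41o- cells with HRP-tagged F508delCFTR, expression induced by 0.5 μg/mL doxycycline for 72 h at 37 °C, then compound for 18-24 h at 33 °C (8-point, 3-fold, top 20 μM). Surface HRP measured by luminol luminescence; % activity normalised to 3 μM positive-control corrector; EC50 from variable-slope sigmoidal fit, three replicate plates.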

[2] = target: T2, F508delCFTR in primary hBE cells with F508del/F508del CFTR mutation (Homo sapiens, UniProt P13569, DEL508-508); assay: Transepithelial Clamp Circuit on Human Bronchial Epithelial Cells Conductance Assay (hBE-TECC); type: cell-based; settings: for pEC50: primary hBE cells F508del/F508del, 18-24 hours at 37° C., equivalent short circuit current, 6 concentrations
T2 construct: cells isolated from CF patients with the homozygous mutation; endogenous in cells; host or cells: primary human bronchial epithelial (hBE) cells from F508del/F508del CF patients
Description: Transepithelial Clamp Circuit on Human Bronchial Epithelial Cells Conductance Assay:
A cell based assay using the primary human bronchial epithelial cells (hBE) was used as a secondary assay to test novel F508delCFTR correctors for their activity on primary hBE cells with F508del/F508del CFTR mutation. The assay used a TECC-24 (Transepithelial Clamp Circuit for 24 wells) instrument that measures the functionality of the mutated channel by measuring the equivalent short circuit current (Ieq) generated by the polarized epithelial cells. The instrument works by measuring the transepithelial potential difference (Vt) and transepithelial resistance (Rt) in an open circuit format, and the Ieq is calculated by using Ohms law (Ieq=Vt/Rt). The assay was run in a 24-well format and all 24-wells were measured at the same time point giving a higher throughput for this assay.
Primary human bronchial epithelial (hBE) cells from F508del/F508delCFTR patients were expanded from 1×10^6 to 250×10^6 cells (Neuberger T, Burton B, Clark H and VanGoor F; Cystic Fibrosis, Methods in Mole Biol 741; eds. Amaral M D and Kunzelmann K, 2011). For this purpose, cells isolated from CF patients with the homozygous mutation were seeded onto 24 well Corning (Cat #3378) filter plates that were coated with 3T3 conditioned media and grown at an air-liquid interface for 35 days using an Ultroser® G supplemented differentiation media. Apical surface mucus was removed 72 hours before the experiment using 3 mM dithiothreitol (DTT) in phosphate buffered saline (PBS). The apical surface was washed again 24 hours before the experiment using PBS. The cells were incubated with the desired dose response of the corrector compounds 18-24 hours at 37° C., 5% CO2. The corrector compounds are only added on the basolateral side of the epithelial cells.
On the day of measuring the corrector activity on the TECC, the cells were switched into a bicarbonate and serum free F-12 Coon's medium and allowed to equilibrate for 90 minutes in a CO2 free incubator. At the time of measurement, the apical and basolateral sides of the filter were bathed with the F-12 Coon's modification media (with 20 mM 4-(2-hydroxyethyl)-1-piperazineethanesulfonic acid (HEPES), pH 7.4 (using 1 M tris(hydroxymethyl)aminomethane (Tris)), and the measurements were made at 36.5° C. Transepithelial voltage (Vt) and transepithelial resistance (Rt) were measured using a 24 channel transepithelial current clamp (TECC-24). Current responses to the sequential addition of benzamil (apical 6 μM addition; for inhibiting epithelial ENaC channel), forskolin (apical and basolateral 10 μM addition; for activating the CFTR channel), control potentiator (N-(3-carbamoyl-5,5,7,7-tetramethyl-4,7-dihydro-5H-thieno[2,3-c]pyran-2-yl)-1H-pyrazole-5-carboxamide; apical and basolateral […] addition; for potentiating the CFTR channel) and bumetanide (basolateral 20 μM addition; for inhibiting the Na:2Cl:K co-transporter, an indirect measure of inhibiting the Cl-secretion driven by CFTR channel) were measured.
All plates contained negative controls (dimethyl sulfoxide, DMSO) which coupled with the control potentiator (N-(3-carbamoyl-5,5,7,7-tetramethyl-4,7-dihydro-5H-thieno[2,3-c]pyran-2-yl)-1H-pyrazole-5-carboxamide) sets the null response and positive controls (3 μM of 3-[(2R,4R)-4-({[1-(2,2-difluoro-1,3-benzodioxol-5-yl)cyclopropyl]carbonyl}amino)-7-methoxy-3,4-dihydro-2H-chromen-2-yl]benzoic acid) coupled with the control potentiator sets the 100% response to measure the correction of the mutated CFTR channel. The maximum percent activity is reported relative to the positive control value.
The % activity measured at each of the 6 test concentrations of the test compound was normalized to the on-plate positive control using the following formula: % activity=[[…]]*100 […]

[3] = relative to positive control (3 μM) coupled with control potentiator

T2 sequence (P13569 with tags, fused parts or gaps DEL508-508): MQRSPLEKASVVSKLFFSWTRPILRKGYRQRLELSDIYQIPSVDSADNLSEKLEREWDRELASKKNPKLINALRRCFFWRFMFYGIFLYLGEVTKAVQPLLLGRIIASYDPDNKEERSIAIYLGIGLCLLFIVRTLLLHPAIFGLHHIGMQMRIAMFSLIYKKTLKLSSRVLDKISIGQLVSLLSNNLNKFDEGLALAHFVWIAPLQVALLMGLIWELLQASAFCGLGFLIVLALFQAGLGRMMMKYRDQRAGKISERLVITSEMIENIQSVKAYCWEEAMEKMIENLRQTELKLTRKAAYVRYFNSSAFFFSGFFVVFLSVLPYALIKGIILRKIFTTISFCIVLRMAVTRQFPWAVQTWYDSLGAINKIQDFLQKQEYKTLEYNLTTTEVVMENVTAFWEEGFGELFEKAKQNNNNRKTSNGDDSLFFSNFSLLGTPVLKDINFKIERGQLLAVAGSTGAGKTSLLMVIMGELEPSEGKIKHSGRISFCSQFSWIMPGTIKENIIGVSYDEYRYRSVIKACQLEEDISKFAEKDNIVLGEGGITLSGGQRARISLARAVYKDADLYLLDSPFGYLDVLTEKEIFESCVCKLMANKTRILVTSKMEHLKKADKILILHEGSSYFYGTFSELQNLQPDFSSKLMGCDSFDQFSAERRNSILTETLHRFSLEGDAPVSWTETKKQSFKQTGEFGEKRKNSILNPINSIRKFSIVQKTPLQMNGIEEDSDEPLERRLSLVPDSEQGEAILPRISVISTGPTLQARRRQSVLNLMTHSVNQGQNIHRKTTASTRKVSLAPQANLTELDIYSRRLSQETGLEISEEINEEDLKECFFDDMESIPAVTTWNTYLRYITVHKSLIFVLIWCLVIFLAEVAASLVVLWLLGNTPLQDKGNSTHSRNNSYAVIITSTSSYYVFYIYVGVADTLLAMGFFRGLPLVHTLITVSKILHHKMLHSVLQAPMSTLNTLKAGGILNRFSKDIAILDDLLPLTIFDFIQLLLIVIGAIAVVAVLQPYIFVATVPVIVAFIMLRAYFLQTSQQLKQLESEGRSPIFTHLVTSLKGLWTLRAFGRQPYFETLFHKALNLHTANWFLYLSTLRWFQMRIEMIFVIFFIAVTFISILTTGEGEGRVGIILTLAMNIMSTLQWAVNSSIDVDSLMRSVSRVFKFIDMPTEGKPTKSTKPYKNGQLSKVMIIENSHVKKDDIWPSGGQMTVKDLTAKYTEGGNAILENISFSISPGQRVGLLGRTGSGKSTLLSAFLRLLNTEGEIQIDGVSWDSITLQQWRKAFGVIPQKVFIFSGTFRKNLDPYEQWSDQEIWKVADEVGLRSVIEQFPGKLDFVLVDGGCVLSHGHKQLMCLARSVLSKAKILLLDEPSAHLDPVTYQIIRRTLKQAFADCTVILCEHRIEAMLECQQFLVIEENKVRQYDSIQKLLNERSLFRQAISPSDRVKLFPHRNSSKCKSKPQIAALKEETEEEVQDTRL
T1 sequence (P13569 with tags, fused parts or gaps DEL508-508 limits assumed): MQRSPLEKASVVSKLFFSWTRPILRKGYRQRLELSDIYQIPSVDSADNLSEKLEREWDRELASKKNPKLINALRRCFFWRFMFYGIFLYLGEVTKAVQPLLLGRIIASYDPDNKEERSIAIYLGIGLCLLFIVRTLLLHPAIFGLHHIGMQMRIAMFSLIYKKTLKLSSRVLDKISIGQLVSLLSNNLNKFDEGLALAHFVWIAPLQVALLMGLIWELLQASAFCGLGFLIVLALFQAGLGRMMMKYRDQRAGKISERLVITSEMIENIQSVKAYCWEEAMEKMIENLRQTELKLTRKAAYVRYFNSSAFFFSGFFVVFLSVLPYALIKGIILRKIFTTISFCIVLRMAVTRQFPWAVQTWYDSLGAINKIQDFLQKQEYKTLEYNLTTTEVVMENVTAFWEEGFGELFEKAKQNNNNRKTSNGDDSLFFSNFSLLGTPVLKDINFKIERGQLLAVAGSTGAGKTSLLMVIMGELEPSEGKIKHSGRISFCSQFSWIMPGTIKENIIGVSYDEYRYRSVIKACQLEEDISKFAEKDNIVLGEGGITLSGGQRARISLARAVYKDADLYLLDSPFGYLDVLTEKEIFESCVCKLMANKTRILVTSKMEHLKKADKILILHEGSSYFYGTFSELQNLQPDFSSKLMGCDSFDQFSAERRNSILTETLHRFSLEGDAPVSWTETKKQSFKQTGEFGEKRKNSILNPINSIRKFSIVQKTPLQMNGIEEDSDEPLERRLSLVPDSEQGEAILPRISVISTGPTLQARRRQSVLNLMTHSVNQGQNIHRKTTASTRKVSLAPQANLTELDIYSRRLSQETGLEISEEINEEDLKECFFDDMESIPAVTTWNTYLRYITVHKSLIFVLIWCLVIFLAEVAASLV
T1 sequence (P13569 919-1480 limits assumed, stated change not applied): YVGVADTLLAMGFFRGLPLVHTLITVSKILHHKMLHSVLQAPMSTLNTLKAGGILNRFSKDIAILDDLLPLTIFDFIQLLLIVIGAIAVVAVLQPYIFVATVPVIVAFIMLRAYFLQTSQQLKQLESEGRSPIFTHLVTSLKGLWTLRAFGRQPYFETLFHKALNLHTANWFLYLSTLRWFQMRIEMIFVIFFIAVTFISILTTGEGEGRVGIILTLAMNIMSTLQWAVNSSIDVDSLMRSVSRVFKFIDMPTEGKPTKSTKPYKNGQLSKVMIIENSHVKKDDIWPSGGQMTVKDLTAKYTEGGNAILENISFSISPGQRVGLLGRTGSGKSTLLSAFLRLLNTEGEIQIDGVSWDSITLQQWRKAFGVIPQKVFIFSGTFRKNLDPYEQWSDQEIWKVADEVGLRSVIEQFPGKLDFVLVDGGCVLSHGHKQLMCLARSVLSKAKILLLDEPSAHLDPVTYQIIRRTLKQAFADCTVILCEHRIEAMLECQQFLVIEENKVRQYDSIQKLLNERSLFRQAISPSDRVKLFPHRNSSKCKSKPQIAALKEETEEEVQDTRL

**Q.** With `Cc1ccc(NC(=O)[C@]2(C)CCc3c2ccc2c3OCO2)cc1-c1cccc(C(=O)O)c1` (single isomer, unassigned) [Example 37] as the compound, how does the pEC50 [1] read?
**A.** Its pEC50 is 6.14.

**Q.** And the “Maximum % activity (%)” value [1]?
**A.** Its value is 83%.

**Q.** And the pEC50 [2]?
**A.** Its pEC50 is 6.25.

**Q.** And the “Maximum % activity (%)” value [2, 3]?
**A.** Its value is 70%.

**Q.** `C[C@]1(C(=O)N[C@H]2C[C@@H](c3ccccc3)O[C@@H](c3ccc(C(=O)O)cc3)C2)COc2cc3c(cc21)OC(F)(F)O3` (single isomer, unassigned) [Example 44] was tested. Which pEC50 [1] did it give?
**A.** Its pEC50 is 6.03.

**Q.** What about the “Maximum % activity (%)” value [1] of the same compound?
**A.** Its value is 114%.

**Q.** What about the pEC50 [2] of the same compound?
**A.** Its pEC50 is 6.61.

**Q.** What about the “Maximum % activity (%)” value [2, 3] of the same compound?
**A.** Its value is 83%.

**Q.** `COc1ccc2c(c1)O[C@@H](c1cnc([C@H](O)CO)cn1)C[C@H]2NC(=O)[C@@]1(C)COc2cc3c(cc21)OC(F)(F)O3` (single isomer, unassigned) [Example 192] was tested. Which pEC50 [1] did it give?
**A.** Its pEC50 is 7.05.

**Q.** And the “Maximum % activity (%)” value [1]?
**A.** The value was 126%.

**Q.** What about the pEC50 [2] of the same compound?
**A.** The pEC50 was 8.22.

**Q.** And the “Maximum % activity (%)” value [2, 3]?
**A.** Its value is 103%.

**Q.** What does the source list for `Cc1ccc(NC(=O)C2(C)COc3cc4c(cc32)OC(F)(F)O4)nc1-c1cccc(C(=O)O)c1` (stereo not shown) [Example 2, 3-{6-[(2,2-difluoro-7-methyl-6,7-dihydro-2H-furo[2,3-f][1,3]benzodioxole-7-carbonyl)amino]-3-methylpyridin-2-yl}benzoic acid]?
**A.** pEC50 [1]: 6.52; Maximum % activity (%) [1]: 159%; pEC50 [2]: 6.62; Maximum % activity (%) [2, 3]: 99%

**Q.** How did the pEC50 [1] turn out when `Cc1ccc(NC(=O)[C@@]2(C)COc3cc4c(cc32)OC(F)(F)O4)nc1-c1cccc(C(=O)O)c1` [Example 6, 3-(6-{[(7R)-2,2-difluoro-7-methyl-6,7-dihydro-2H-furo[2,3-f][1,3]benzodioxole-7-carbonyl]amino}-3-methylpyridin-2-yl)benzoic acid] was run?
**A.** Its pEC50 is 6.54.

**Q.** What about the “Maximum % activity (%)” value [1] of the same compound?
**A.** The value was 157%.

**Q.** And the pEC50 [2]?
**A.** Its pEC50 is 6.70.

**Q.** And the “Maximum % activity (%)” value [2, 3]?
**A.** The value was 103%.

**Q.** Which results are given for `COc1ccc2c(c1)O[C@@H](c1cccc(C(=O)O)c1)C[C@H]2NC(=O)C1(C)COc2cc3c(cc21)OC(F)(F)O3` (stereo partly drawn) [Example 11, 3-{(2R,4R)-4-[(2,2-difluoro-7-methyl-6,7-dihydro-2H-furo[2,3-f][1,3]benzodioxole-7-carbonyl)amino]-7-methoxy-3,4-dihydro-2H-1-benzopyran-2-yl}benzoic acid]?
**A.** pEC50 [1]: 6.29; Maximum % activity (%) [1]: 166%; Maximum % activity (%) ([2]; testing concentration 1 μM): 91%

**Q.** Which results are given for `COc1ccc2c(c1)O[C@@H](c1ccc(C(=O)O)cc1)C[C@H]2NC(=O)[C@@]1(C)COc2cc3c(cc21)OC(F)(F)O3` [Example 20, 4-[(2R,4R)-4-{[(7R)-2,2-difluoro-7-methyl-6,7-dihydro-2H-furo[2,3-f][1,3]benzodioxole-7-carbonyl]amino}-7-methoxy-3,4-dihydro-2H-1-benzopyran-2-yl]benzoic acid]?
**A.** pEC50 [1]: 7.52; Maximum % activity (%) [1]: 150%; pEC50 [2]: 7.96; Maximum % activity (%) [2, 3]: 98%

**Q.** With `CC1(C(=O)N[C@@H]2C[C@H](c3cccc(C(=O)O)c3)Oc3ccccc32)COc2cc3c(cc21)OC(F)(F)O3` (stereo partly drawn) [Example 21, 3-{(2R,4R)-4-[(2,2-difluoro-7-methyl-6,7-dihydro-2H-furo[2,3-f][1,3]benzodioxole-7-carbonyl)amino]-3,4-dihydro-2H-1-benzopyran-2-yl}benzoic acid] as the compound, how does the pEC50 [1] read?
**A.** Its pEC50 is 5.90.

**Q.** And the “Maximum % activity (%)” value [1]?
**A.** Its value is 162%.

**Q.** And the pEC50 [2]?
**A.** The pEC50 was 6.33.

**Q.** And the “Maximum % activity (%)” value [2, 3]?
**A.** The value was 94%.

**Q.** What does the source list for `CC1(C(=O)Nc2cc(-c3ccccc3)nn(C[C@@H](O)CO)c2=O)COc2cc3c(cc21)OC(F)(F)O3` (stereo partly drawn) [Example 25, N-{2-[(2R)-2,3-dihydroxypropyl]-3-oxo-6-phenyl-2,3-dihydropyridazin-4-yl}-2,2-difluoro-7-methyl-6,7-dihydro-2H-furo[2,3-f][1,3]benzodioxole-7-carboxamide]?
**A.** pEC50 [1]: 5.94; Maximum % activity (%) [1]: 82%; Maximum % activity (%) ([2]; testing concentration 10 μM): 61%

**Q.** How did the pEC50 [1] turn out when `C[C@]1(C(=O)Nc2cc(-c3ccccc3)nn(C[C@@H](O)CO)c2=O)COc2cc3c(cc21)OC(F)(F)O3` [Example 27, (7R)—N-{2-[(2R)-2,3-dihydroxypropyl]-3-oxo-6-phenyl-2,3-dihydropyridazin-4-yl}-2,2-difluoro-7-methyl-6,7-dihydro-2H-furo[2,3-f][1,3]benzodioxole-7-carboxamide] was run?
**A.** Its pEC50 is 6.09.

**Q.** And the “Maximum % activity (%)” value [1]?
**A.** Its value is 82%.

**Q.** What about the “Maximum % activity (%)” value ([2]; testing concentration 3 μM) of the same compound?
**A.** Its value is 54%.

**Q.** Which results are given for `CC1(C(=O)Nc2cc(C3CC3)nn(-c3ccc(C(=O)O)cc3)c2=O)COc2cc3c(cc21)OC(F)(F)O3` (stereo not shown) [Example 30, 4-{3-cyclopropyl-5-[(2,2-difluoro-7-methyl-6,7-dihydro-2H-furo[2,3-f][1,3]benzodioxole-7-carbonyl)amino]-6-oxopyridazin-1(614)-yl}benzoic acid]?
**A.** pEC50 [1]: 6.01; Maximum % activity (%) [1]: 122%; Maximum % activity (%) ([2]; testing concentration 10 μM): 47%

**Q.** `C[C@]1(C(=O)Nc2cc(C3CC3)nn(-c3ccc(C(=O)O)cc3)c2=O)COc2cc3c(cc21)OC(F)(F)O3` [Example 32, 4-[3-cyclopropyl-5-{[(7R)-2,2-difluoro-7-methyl-6,7-dihydro-2H-furo[2,3-f][1,3]benzodioxole-7-carbonyl]amino}-6-oxopyridazin-1(6H)-yl]benzoic acid] was tested. Which pEC50 [1] did it give?
**A.** The pEC50 was 6.06.

**Q.** What about the “Maximum % activity (%)” value [1] of the same compound?
**A.** Its value is 144%.

**Q.** And the “Maximum % activity (%)” value ([2]; testing concentration 3 μM)?
**A.** Its value is 51%.

**Q.** How did the pEC50 [1] turn out when `CC1(C(=O)N[C@@H]2C[C@H](c3cccc(C(=O)O)c3)Oc3ccccc32)CCc2cc3c(cc21)OC(F)(F)O3` (stereo partly drawn) [Example 35, 3-{(2R,4R)-4-[(2,2-difluoro-5-methyl-6,7-dihydro-2H,5H-indeno[5,6-d][1,3]dioxole-5-carbonyl)amino]-3,4-dihydro-2H-1-benzopyran-2-yl}benzoic acid] was run?
**A.** Its pEC50 is 6.03.

**Q.** What about the “Maximum % activity (%)” value [1] of the same compound?
**A.** The value was 76%.

**Q.** What about the “Maximum % activity (%)” value ([2]; testing concentration 3 μM) of the same compound?
**A.** Its value is 80%.

**Q.** With “(7R)—N-[5-(3R,4R)-dihydroxypyrrolidin-1-yl)pyrazin-2-yl]-2,2-difluoro-7-methyl-6,7-dihydro-2H-furo[2,3-f][1,3]benzodioxole-7-carboxamide and (7R)—N-[5-(3S,4S)-dihydroxypyrrolidin-1-yl)pyrazin-2-yl]-2,2-difluoro-7-methyl-6,7-dihydro-2H-furo[2,3-f][1,3]benzodioxole-7-carboxamide [Example 121]” as the compound, how does the pEC50 [1] read?
**A.** Its pEC50 is 4.96.

**Q.** What about the “Maximum % activity (%)” value [1] of the same compound?
**A.** The value was 23%.

**Q.** With “(7R)—N-[6-(3-benzylpyrrolidin-1-yl)pyridin-2-yl]-2,2-difluoro-7-methyl-6,7-dihydro-2H-furo[2,3-f][1,3]benzodioxole-7-carboxamide [Example 113]” as the compound, how does the pEC50 [1] read?
**A.** Its pEC50 is 5.95.

**Q.** What about the “Maximum % activity (%)” value [1] of the same compound?
**A.** Its value is 83%.

**Q.** With “methyl 4-[(2R,4S,6S)-4-{[(7R)-2,2-difluoro-7-methyl-6,7-dihydro-2H-furo[2,3-f][1,3]benzodioxole-7-carbonyl]amino}-6-phenyloxan-2-yl]benzoate and methyl 4-[(2S,4R,6R)-4-{[(7R)-2,2-difluoro-7-methyl-6,7-dihydro-2H-furo[2,3-f][1,3]benzodioxole-7-carbonyl]amino}-6-phenyloxan-2-yl]benzoate [Example 33]” as the compound, how does the pEC50 [1] read?
**A.** Its pEC50 is 5.93.

**Q.** And the “Maximum % activity (%)” value [1]?
**A.** The value was 131%.
